Source: US11370761B2, “Voltage-dependent T-type calcium channel inhibitor” (Nippon Chemiphar Co., Ltd., priority 2017, dated 2022)

Target: T1, human Cav3.2 channel (Homo sapiens, UniProt O95180)
T1 construct: expressed in transfected cells
Assay: Intracellular calcium concentration measurement in human Cav3.2 channel expressing stable cell line (Pharmacological Test 1)
Assay type: cell-based
Conditions: HEK293 cells stably expressing human Cav3.2, Fluo-4 AM fluorescence, KCl stimulation; read-out: Cav3.2 channel inhibitory action
Source text: (1) Construction of Human Cav3.2 Channel Expressing Stable Cell Line
A sequence in which a HindIII site and a kozak sequence (GCCACC) was provided on a 5′ side of a human Cav3.2 channel open reading frame (ORF) gene and a KpnI site was provided on a 3′ side thereof was incorporated into pcDNA3.1(+) (Thermo Fisher Scientific #V790-20), and the resultant was transfected into a HEK293 cell (ATCC No. CRL-1573) according to a protocol of FuGENE (registered trademark) HD Transfection Reagent (Promega #E2311).
(2) Method of Measuring Intracellular Calcium Concentration
The human Cav3.2 channel expressing stable cell line prepared by the test method (1) was seeded in a 96-well plate using a Dulbecco's modified Eagle's medium (DMEM medium) containing 10% fetal bovine serum (FBS), followed by culturing 37° C. for 48 hours under a 5% CO2 condition. Thereafter, the medium was removed, and each well washed with an A buffer was treated with 80 μL of a fluorescent dye solution containing a liquid mixture of 22 μg of a calcium fluorescent indicator Fluo-4 AM (Dojindo Molecular Technologies, Inc., #F311), 20 μL of dimethyl sulfoxide (DMSO), 1 μL of 10% Pluronic F-127 (Thermo Fisher Scientific #P6866), and 4 mL of the A buffer. After being left to stand for 45 minutes at room temperature under a light shielding condition, the cells were washed with a B buffer. In DMSO having the same final concentration as the test compound as a negative control, and the test compound dissolved in DMSO to have a final concentration of 0.1%, each test compound concentration solution containing the B buffer was added to each well. The cells were left to stand for additional 15 minutes at room temperature under a light shielding condition, and were measured using microplate reader EnVision (PerkinElmer Co., Ltd.) by the following method. First, after measuring background fluorescence in each well, an ionophore was added, and baseline fluorescence was measured. Thereafter, B buffer containing added KCl at a concentration of 83.8 mM was added to each well, and an increase in fluorescence due to calcium influx caused by the stimulation was measured for 10 seconds. Inhibition percentage was calculated from the maximum fluorescence increase value from the baseline, and an IC50 value was calculated by plotting a logarithmic value of the test compound concentration and inhibition activity. The measurement was performed by observing fluorescence of 510 nm emitted when the cells were irradiated with excitation light of 485 nm.
A buffer: 140 mM NaCl, 5 mM KCl, 1 mM MgCl2, 0.5 mM CaCl2, 10 mM Glucose, 10 mM HEPES, pH 7.3
B buffer: potassium equilibrium potential: −92 mV

T1 sequence (O95180 whole entry): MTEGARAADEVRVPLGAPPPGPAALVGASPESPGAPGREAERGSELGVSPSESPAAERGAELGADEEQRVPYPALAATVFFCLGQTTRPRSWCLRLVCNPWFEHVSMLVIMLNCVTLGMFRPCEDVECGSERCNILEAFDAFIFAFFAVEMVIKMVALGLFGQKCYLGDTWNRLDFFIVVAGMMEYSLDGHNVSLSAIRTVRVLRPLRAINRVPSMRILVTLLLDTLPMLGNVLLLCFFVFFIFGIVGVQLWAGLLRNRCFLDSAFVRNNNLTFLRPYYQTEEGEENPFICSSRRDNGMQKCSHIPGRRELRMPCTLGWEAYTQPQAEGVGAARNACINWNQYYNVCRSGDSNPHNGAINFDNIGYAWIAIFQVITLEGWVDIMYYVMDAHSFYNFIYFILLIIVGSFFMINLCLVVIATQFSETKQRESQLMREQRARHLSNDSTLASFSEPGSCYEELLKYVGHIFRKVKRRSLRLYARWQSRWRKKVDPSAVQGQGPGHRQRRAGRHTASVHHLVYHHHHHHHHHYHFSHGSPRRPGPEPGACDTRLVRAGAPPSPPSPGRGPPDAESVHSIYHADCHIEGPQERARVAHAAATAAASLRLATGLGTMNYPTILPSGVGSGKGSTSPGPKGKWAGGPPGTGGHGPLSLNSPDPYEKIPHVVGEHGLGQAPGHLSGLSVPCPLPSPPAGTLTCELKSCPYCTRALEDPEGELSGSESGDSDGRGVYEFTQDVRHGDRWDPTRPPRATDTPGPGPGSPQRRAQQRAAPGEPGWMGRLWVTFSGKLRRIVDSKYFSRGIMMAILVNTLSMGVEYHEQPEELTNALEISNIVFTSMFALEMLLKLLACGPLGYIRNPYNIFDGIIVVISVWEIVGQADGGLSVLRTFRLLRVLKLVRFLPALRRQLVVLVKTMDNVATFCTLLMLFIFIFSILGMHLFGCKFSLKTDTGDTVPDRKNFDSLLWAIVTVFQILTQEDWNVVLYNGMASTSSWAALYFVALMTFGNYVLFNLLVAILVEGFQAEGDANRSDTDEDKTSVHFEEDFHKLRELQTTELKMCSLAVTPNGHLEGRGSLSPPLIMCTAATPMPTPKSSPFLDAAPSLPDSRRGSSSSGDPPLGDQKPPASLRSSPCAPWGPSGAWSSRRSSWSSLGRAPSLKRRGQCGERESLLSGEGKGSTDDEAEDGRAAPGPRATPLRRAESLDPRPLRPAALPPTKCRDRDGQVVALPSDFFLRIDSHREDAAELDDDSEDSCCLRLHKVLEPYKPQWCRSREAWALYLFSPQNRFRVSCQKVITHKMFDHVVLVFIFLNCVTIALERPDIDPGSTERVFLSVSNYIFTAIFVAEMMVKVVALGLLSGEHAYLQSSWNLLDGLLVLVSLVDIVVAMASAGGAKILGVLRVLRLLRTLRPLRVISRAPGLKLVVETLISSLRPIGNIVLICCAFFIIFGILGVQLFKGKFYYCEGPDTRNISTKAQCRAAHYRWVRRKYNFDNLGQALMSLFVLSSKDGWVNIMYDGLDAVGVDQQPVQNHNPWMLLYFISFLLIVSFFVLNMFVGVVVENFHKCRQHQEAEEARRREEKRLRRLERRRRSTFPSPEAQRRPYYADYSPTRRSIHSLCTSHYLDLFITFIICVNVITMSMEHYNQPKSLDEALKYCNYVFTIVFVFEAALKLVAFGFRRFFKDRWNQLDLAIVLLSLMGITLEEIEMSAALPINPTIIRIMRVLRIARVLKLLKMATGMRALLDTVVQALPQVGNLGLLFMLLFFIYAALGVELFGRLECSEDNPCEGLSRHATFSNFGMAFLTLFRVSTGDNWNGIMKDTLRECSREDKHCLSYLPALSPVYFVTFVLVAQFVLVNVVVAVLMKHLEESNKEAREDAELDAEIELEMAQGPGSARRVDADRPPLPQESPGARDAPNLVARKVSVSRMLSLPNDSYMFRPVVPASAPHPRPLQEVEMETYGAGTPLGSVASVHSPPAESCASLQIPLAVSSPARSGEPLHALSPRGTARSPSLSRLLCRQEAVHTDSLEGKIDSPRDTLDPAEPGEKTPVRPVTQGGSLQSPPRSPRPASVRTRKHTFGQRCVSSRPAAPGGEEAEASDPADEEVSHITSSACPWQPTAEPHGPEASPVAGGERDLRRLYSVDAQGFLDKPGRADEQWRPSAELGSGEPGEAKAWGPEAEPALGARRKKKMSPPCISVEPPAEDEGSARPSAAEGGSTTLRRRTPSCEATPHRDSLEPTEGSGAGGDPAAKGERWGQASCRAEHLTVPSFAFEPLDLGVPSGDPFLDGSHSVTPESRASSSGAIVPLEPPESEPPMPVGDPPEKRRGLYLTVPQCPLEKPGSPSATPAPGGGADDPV

| SMILES | IC50 [µM] |
| --- | --- |
| CC(NC(=O)C1CC1c1nc2ccccc2[nH]1)C(=O)NCc1ccc(C(F)(F)F)nc1 (stereo not drawn) [Example 15, Trans-2-(1H-benzo[d]imidazol-2-yl)-N-(1-oxo-1-(((6-(trifluoromethyl)pyridin-3-yl)methyl)amino)propan-2-yl) cyclopropane-1-carboxamide] | 1 to 10 |
| CCC(=O)N1CCC(NC(=O)C(C)NC(=O)C2CC2c2nc3ccccc3[nH]2)CC1 (stereo not drawn) [Example 13, Trans-2-(1H-benzo[d]imidazol-2-yl)-N-(1-oxo-1-((1-propionylpiperidin-4-yl)amino)propan-2-yl) cyclopropane-1-carboxamide] | > 10 |
| O=C(NC1(C(=O)Nc2cc(Cl)cc(Cl)c2)CC1)[C@H]1C[C@@H]1c1nc2ccccc2[nH]1 [Example 35, 1-((1S, 2S)-2-(1H-Benzo[d]imidazol-2-yl)cyclopropane-1-carboxamido)-N-(3,5-dichlorophenyl) cyclopropane-1-carboxamide] | 0.1 to 1 |
| CC(NC(=O)C1CC1c1nc2ccccc2[nH]1)C(=O)NC1CCN(C(=O)OC(C)(C)C)CC1 (stereo not drawn) [Example 11, tert-Butyl trans-4-(2-(2-(1H-benzo[d]imidazol-2-yl)cyclopropane-1-carboxamido)propanamido)piperidine-1-carboxylate] | 1 to 10 |
| CC(C)C[C@@H](NC(=O)[C@H]1C[C@@H]1c1nc2ccccc2[nH]1)C(=O)Nc1cccc(C(F)(F)F)c1 [Example 37, (1S, 2S)-2-(1H-Benzo[d]imidazol-2-yl)-N—((R)-4-methyl-1-oxo-1-((3-(trifluoromethyl)phenyl)amino)pentan-2-yl) cyclopropane-1-carboxamide] | 0.1 to 1 |
| O=C(NC1(C(=O)Nc2ccc(F)c(C(F)(F)F)c2)CC1)[C@H]1C[C@@H]1c1nc2cc(Cl)ccc2[nH]1 [Example 34, 1-((1S, 2S)-2-(5-Chloro-1H-benzo[d]imidazol-2-yl)cyclopropane-1-carboxamido)-N-(4-fluoro-3-(trifluoromethyl)phenyl) cyclopropane-1-carboxamide] | ≤ 0.1 |
| O=C(NC1(C(=O)Nc2cccc(OC(F)(F)F)c2)CC1)[C@H]1C[C@@H]1c1nc2ccccc2[nH]1 [Example 43, 1-((1S, 2S)-2-(1H-Benzo[d]imidazol-2-yl)cyclopropane-1-carboxamido)-N-(3-(trifluoromethoxy)phenyl) cyclopropane-1-carboxamide] | ≤ 0.1 |
| O=C(NC1(C(=O)Nc2cncc(C(F)(F)F)c2)CC1)[C@H]1C[C@@H]1c1nc2ccccc2[nH]1 [Example 29, 1-((1S, 2S)-2-(1H-Benzo[d]imidazol-2-yl)cyclopropane-1-carboxamido)-N-(5-(trifluoromethyl)pyridin-3-yl) cyclopropane-1-carboxamide] | 1 to 10 |
| CCCc1ccc(NC(=O)C(C)NC(=O)C2CC2c2nc3ccccc3[nH]2)cc1 (single isomer, unassigned) [Example 2B, Trans-2-(1H-benzo[d]imidazol-2-yl)-N-(1-oxo-1-((4-propylphenyl)amino)propan-2-yl) cyclopropane-1-carboxamide] | > 10 |
| CC(NC(=O)C1CC1c1nc2ccccc2[nH]1)C(=O)NCc1ccc(C(F)(F)F)cc1 (stereo not drawn) [Example 14, Trans-2-(1H-benzo[d]imidazol-2-yl)-N-(1-oxo-1-((4-(trifluoromethyl)benzyl)amino)propan-2-yl) cyclopropane-1-carboxamide] | 0.1 to 1 |
| CC(NC(=O)C1CC1c1nc2ccccc2[nH]1)C(=O)NCc1ccc(S(C)(=O)=O)cc1 (stereo not drawn) [Example 9, Trans-2-(1H-benzo[d]imidazol-2-yl)-N-(1-((4-(methylsulfonyl)benzyl)amino)-1-oxopropan-2-yl) cyclopropane-1-carboxamide] | > 10 |
| O=C(NC1(C(=O)Nc2cccc(C(F)(F)F)c2)CCC1)[C@H]1C[C@@H]1c1nc2ccccc2[nH]1 [Example 36, 1-((1S, 2S)-2-(1H-Benzo[d]imidazol-2-yl)cyclopropane-1-carboxamido)-N-(3-(trifluoromethyl)phenyl) cyclobutane-1-carboxamide] | ≤ 0.1 |
| O=C(CNC(=O)[C@H]1C[C@@H]1c1nc2ccccc2[nH]1)Nc1cccc(C(F)(F)F)c1 [Example 39, (1S, 2S)-2-(1H-Benzo[d]imidazol-2-yl)-N-(2-oxo-2-((3-(trifluoromethyl)phenyl)amino)ethyl) cyclopropane-1-carboxamide] | ≤ 0.1 |
| CC(NC(=O)C1CC1c1nc2ccccc2[nH]1)C(=O)Nc1ccc(C(F)(F)F)nc1 (single isomer, unassigned) [Example 5B, Trans-2-(1H-benzo[d]imidazol-2-yl)-N-(1-oxo-1-((6-(trifluoromethyl)pyridin-3-yl)amino)propan-2-yl) cyclopropane-1-carboxamide] | 0.1 to 1 |
| O=C(NC1(C(=O)Nc2cccc(C(F)(F)F)c2)CC1)[C@H]1C[C@@H]1c1nc2ccccc2n1C1CC1 [Example 40, 1-((1S, 2S)-2-(1-Cyclopropyl-1H-benzo[d]imidazol-2-yl)cyclopropane-1-carboxamido)-N-(3-(trifluoromethyl)phenyl) cyclopropane-1-carboxamide] | ≤ 0.1 |
| O=C(NC1(C(=O)Nc2ccc(F)c(C(F)(F)F)c2)CC1)[C@H]1C[C@@H]1c1nc2ccccc2[nH]1 [Example 31, 1-((1S, 2S)-2-(1H-Benzo[d]imidazol-2-yl)cyclopropane-1-carboxamido)-N-(4-fluoro-3-(trifluoromethyl)phenyl) cyclopropane-1-carboxamide] | ≤ 0.1 |
| O=C(NC1(C(=O)Nc2cccc(C(F)(F)F)c2F)CC1)[C@H]1C[C@@H]1c1nc2ccccc2[nH]1 [Example 41, 1-((1S, 2S)-2-(1H-Benzo[d]imidazol-2-yl)cyclopropane-1-carboxamido)-N-(2-fluoro-3-(trifluoromethyl)phenyl) cyclopropane-1-carboxamide] | 0.1 to 1 |
| O=C(NC1(C(=O)Nc2ccc(C(F)(F)F)cc2F)CC1)[C@H]1C[C@@H]1c1nc2ccccc2[nH]1 [Example 28, 1-((1S, 2S)-2-(1H-Benzo[d]imidazol-2-yl)cyclopropane-1-carboxamido)-N-(2-fluoro-4-(trifluoromethyl)phenyl) cyclopropane-1-carboxamide] | 0.1 to 1 |

Further lines, results first:

| IC50 [µM] | SMILES |
| --- | --- |
| 0.1 to 1 | COCC(NC(=O)[C@H]1C[C@@H]1c1nc2ccccc2[nH]1)C(=O)Nc1ccc(F)c(C(F)(F)F)c1 (single isomer, unassigned) [Example 32A] |
| ≤ 0.1 | CC(NC(=O)C1CC1c1nc2ccccc2[nH]1)C(=O)Nc1cccc(C(F)(F)F)c1 (single isomer, unassigned) [Example 38A, Trans-2-(1H-benzo[d]imidazol-2-yl)-N-(1-oxo-1-((3-(trifluoromethyl)phenyl)amino)propan-2-yl) cyclopropane-1-carboxamide] |
| 1 to 10 | O=C(NC1CC(=O)N(c2ccc(C(F)(F)F)nc2)C1)[C@H]1C[C@@H]1c1nc2ccccc2[nH]1 (single isomer, unassigned) [Example 33A] |
| 1 to 10 | O=C(NC1CC(=O)N(c2ccc(C(F)(F)F)nc2)C1)[C@H]1C[C@@H]1c1nc2ccccc2[nH]1 (single isomer, unassigned) [Example 33B] |
| 0.1 to 1 | COCC(NC(=O)[C@H]1C[C@@H]1c1nc2ccccc2[nH]1)C(=O)Nc1ccc(F)c(C(F)(F)F)c1 (single isomer, unassigned) [Example 32B] |
| 1 to 10 | O=C(Nc1ccc(C(F)(F)F)cc1)C1CCCN1C(=O)C1CC1c1nc2ccccc2[nH]1 (single isomer, unassigned) [Example 19A, Trans-1-(2-(1H-benzo[d]imidazol-2-yl)cyclopropane-1-carbonyl)-N-(4-(trifluoromethyl)phenyl)pyrrolidine-2-carboxamide] |
| 0.1 to 1 | CC(NC(=O)C1CC1c1nc2ccccc2[nH]1)C(=O)N(C)c1ccc(C(F)(F)F)cc1 (single isomer, unassigned) [Example 8A, Trans-2-(1H-benzo[d]imidazol-2-yl)-N-(1-(methyl(4-(trifluoromethyl)phenyl)amino)-1-oxopropan-2-yl) cyclopropane-1-carboxamide] |
| 1 to 10 | CC(NC(=O)C1CC1c1nc2ccccc2[nH]1)C(=O)Nc1ccc(C#N)cc1 (single isomer, unassigned) [Example 6A, Trans-2-(1H-benzo[d]imidazol-2-yl)-N-(1-((4-cyanophenyl)amino)-1-oxopropan-2-yl) cyclopropane-1-carboxamide] |
